In the oligonucleotide strings, read from the 5' end, every base follows the letter of its sugar. An asterisk marks phosphorothioate; unmarked linkages are phosphodiester. Other units and linkages are bracketed, terminal groups are in braces. A string of capitals states the bases alone. [C6SSC6] = C6-disulfide-C6 linker; {Cy5} = Cy5 fluorescent dye label; d = 2'-deoxy (DNA); m = 2'-O-methyl; r = 2'-OH (RNA)
Assays:
[1] = test system: p44/42 MAPK (Thr202/Tyr204) in CHO cells expressing mGlu7 receptors; assay: p44/42 MAPK activities (PathScan Sandwich ELISA) in CHO cells expressing mGlu7 receptors; format: cell-based, rat; settings: 5 minutes stimulation; FIG. 8C
Procedure: Cells stably expressing the rat mGluR7 receptor are seeded in growth medium in 6 well plates. The next day, medium is replaced with 2 ml starvation medium (Opti-MEM with 0.1% fatty acid free BSA). The following day cells are stimulated with compound in 150 μl starvation medium for the indicated times at 37° C., otherwise cells are stimulated for 5 minutes. Cells are washed with ice cold PBS and lyzed in 150 ul buffer containing 1 mM β-glycerophosphate 1 mM EDTA, 1 mM EGTA, 1 μg/ml leupeptin, 150 mM sodium chloride, 2.5 mM sodium phosphate, 20 mM Tris-Cl, 1 mM PMSF and 1% Triton X-100, scraped off and sonicated on ice. After centrifugation the supernatant is analyzed for p44/42 MAPK activities using the PathScan™ Sandwich ELISA kit according to instructions of the manufacturer. Absorbance ([…]) is read using the EnVision reader (Perkin Elmer).

rat mGlu7a receptor = target: T1, rat mGlu7a receptor (Rattus norvegicus, UniProt P35400); assay: CRE-luciferase reporter gene assay in rat mGlu7a transfected CHO clones; format: cell-based; settings: 1 μM forskolin and 0.5 mM L-AP4, 4 h; responses across clones ranged from no depression to this maximum
T1 construct: expressed in transfected cells
T1 sequence (P35400 35-915): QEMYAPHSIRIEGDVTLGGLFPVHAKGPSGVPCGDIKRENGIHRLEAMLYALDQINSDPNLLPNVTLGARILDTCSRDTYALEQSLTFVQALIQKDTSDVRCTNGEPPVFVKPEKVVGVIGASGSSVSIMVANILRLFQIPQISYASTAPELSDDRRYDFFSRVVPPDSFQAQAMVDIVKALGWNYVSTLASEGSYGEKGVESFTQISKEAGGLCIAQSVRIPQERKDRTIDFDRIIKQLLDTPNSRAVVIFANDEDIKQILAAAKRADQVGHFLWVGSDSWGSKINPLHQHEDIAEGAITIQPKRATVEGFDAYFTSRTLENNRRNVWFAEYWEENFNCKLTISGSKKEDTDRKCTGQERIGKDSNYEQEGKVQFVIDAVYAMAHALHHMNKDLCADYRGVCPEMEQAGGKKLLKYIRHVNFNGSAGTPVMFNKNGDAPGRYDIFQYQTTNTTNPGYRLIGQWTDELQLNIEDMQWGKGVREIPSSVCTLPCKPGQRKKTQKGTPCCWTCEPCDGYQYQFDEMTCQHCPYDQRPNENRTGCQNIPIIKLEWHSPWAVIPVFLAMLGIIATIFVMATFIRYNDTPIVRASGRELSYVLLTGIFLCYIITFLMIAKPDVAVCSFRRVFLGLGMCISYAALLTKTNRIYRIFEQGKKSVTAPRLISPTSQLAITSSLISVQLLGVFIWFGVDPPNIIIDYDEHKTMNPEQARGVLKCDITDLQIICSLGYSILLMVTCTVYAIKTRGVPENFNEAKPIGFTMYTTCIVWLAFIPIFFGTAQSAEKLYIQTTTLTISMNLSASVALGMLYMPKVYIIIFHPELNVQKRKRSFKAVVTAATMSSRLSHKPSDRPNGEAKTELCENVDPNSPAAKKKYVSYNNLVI
Excerpt: The cDNA of the rat mGlu7a receptor splice variant (Genbank: D16817) was inserted into a eukaryotic expression vector pcDNA3.1(+). This plasmid was transfected into CHO cells deficient in dihydrofolate reductase activity (CHO-dhfr^−) harboring a luciferase reporter gene under the control of 5 cAMP-responsive elements (CRE) using Lipofectamine plus according to the instruction of the manufacturer. Clones were isolated through limited dilutions and identified by activities in the reporter gene assay. Cells were stimulated with 1 μM forskolin and 0.5 mM L-AP4 in the assay buffer. After 4 h the supernatant was exchanged with lysis buffer and the luciferase activity measured. Responses ranged from no depression to about 83% depression. A clonal cell line displaying the greatest inhibition of forskolin-mediated luciferase activity was selected and identified as giving consistently good responses for up to at least 20 passages.

rat mGluR7 receptor = target: T2, rat mGluR7 receptor (Rattus norvegicus, UniProt P35400); assay: Antibody mediated cellular uptake of siRNA-Cy5 in mGluR7 expressing CHO cells; format: cell-based; settings: mix of 67 nM primary antibody and 20 nM siRNA-Cy5, 37° C., 40 minutes; FIG. 5 E-H
T2 construct: expressed in transfected cells
T2 sequence (P35400 35-915): as above
Procedure: The experiment was carried out according to the protocol, with the following modifications: The cells were incubated with 67 nm primary antibody conjugated to siRNA-Cy5 (Molar ratio 1 to 0.3) or a mix of 67 nM primary antibody and 20 nM siRNA-Cy5 at 37° C. for 40 minutes. The secondary antibody used for detection of cell surface primary immunostaining was labelled with Alexa488 and the secondary antibody used for detection of whole cell primary immunostaining was labelled with Alexa532. The Trueblue and hoechst staining of the cytoplasm was replaced with a staining step following the formaldehyde fixation, where the samples where incubated with 3 uM Hoechst and 2 μg/ml CellmaskBlue in PBS for 15 minutes at roomtemperature followed by a second fixation with 4% formaldehyde for 15 minutes at roomtemperature.
Each row contains images acquired in parallel of the same field of view in the well. Panel A-D is with primary antibody labelled with siRNA-Cy5, panel E-H with primary antibody mixed with siRNA-Cy5.

Compound	triggering of increases of p44/42 MAPK activities (specificity) [1]	depression of forskolin-mediated luciferase activity (rat mGlu7a receptor)	internalization without a covalent link between IgG and siRNA (rat mGluR7 receptor)
Cl.Cl.c1ccc(C(NCCNC(c2ccccc2)c2ccccc2)c2ccccc2)cc1 [AMN082, Dibenzhydrylethane-1,2-diamine dihydrochloride]	do not trigger increases	–	–
NC(CCP(=O)(O)O)C(=O)O [L-AP4]	do not trigger increases	about 83%	–
siRNA: Cy5 labeled siRNA, sense SEQ ID NO: 1 with C6SSC6 linker, antisense SEQ ID NO: 2; tested mixed with IgG (sense {Cy5}-mCmUmUrAmCrGmCmUrGrArGmUrAmCmUmUmCrGrAdTdT[C6SSC6]dT; antisense rUrCrGrArArGmUrArCrUmCrArGrCrGmUrArArGdT*dT)	–	–	only the IgG is internalized

From US8354102B2, “Antibodies directed to mGluR7” (Hoffmann-La Roche Inc., priority 2007, dated 2013)
